Measured values from ChEMBL document CHEMBL6134839, “Novel 15-lipoxygenase-1 inhibitor protects cells from RSL3-induced cell death” (Eur J Med Chem, 2025).

Legend:
[1] = Inhibition of RSL3-induced lipid peroxidation in human HEK293 cells incubated for 3 hrs by C11-BODIPY581/591 probe based flow cytometry analysis; type: functional, cell-based
[2] = target: T1, Polyunsaturated fatty acid lipoxygenase ALOX15 (Homo sapiens, UniProt P16050); test: Inhibition of human 15-LOX-1 using linoleic acid as substrate preincubated for 10 mins followed by substrate addition
T1 sequence (P16050 whole entry): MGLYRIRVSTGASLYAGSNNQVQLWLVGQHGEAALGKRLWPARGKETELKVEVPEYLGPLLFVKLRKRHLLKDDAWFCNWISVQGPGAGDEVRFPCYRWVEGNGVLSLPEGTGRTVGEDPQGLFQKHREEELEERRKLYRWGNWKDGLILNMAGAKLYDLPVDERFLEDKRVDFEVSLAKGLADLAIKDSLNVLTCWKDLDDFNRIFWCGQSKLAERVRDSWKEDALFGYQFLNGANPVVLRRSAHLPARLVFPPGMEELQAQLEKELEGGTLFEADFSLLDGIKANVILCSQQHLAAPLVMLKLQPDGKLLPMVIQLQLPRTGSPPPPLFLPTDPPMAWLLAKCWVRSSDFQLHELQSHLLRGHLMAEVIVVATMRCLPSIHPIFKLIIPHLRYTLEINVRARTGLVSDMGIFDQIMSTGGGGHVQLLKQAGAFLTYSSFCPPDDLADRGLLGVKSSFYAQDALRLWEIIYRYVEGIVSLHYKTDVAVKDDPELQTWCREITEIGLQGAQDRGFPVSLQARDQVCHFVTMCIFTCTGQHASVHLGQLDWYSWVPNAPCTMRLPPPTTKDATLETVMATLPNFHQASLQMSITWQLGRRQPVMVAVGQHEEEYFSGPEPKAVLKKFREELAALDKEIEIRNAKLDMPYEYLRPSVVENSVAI

EC50 [1]: 1.2 µM
IC50 [2]: 10 µM
SMILES: c1ccc2c(c1)SCc1c-2[nH]c2ccccc12
